Source: ChEMBL document CHEMBL4177683, “New terpenoids and thiophene derivatives from the aerial parts of Artemisia sieversiana” (Bioorg Med Chem Lett, 2017)
pIC50: −log10 of the molar value.

Each compound was assayed on BV-2 (assay: Antiinflammatory activity in mouse BV2 cells assessed as inhibition of LPS-stimulated nitric oxide production by Griess reagent based spectrophotometric analysis).
Assay type: functional, cell-based

Compound | pIC50
CC1=C(CC[C@@H](C)O)C(C)(C)C[C@H](O)C1 | < 4.00
CC1=CC(=O)[C@]23O[C@@]2(C)C[C@H](O)[C@@H]2[C@H](OC(=O)[C@@H]2C)[C@@H]13 | < 4.00
C=C1CC[C@@H](C(C)C)/C=C/C(=O)CC[C@H]1O | < 4.00
CC(=O)O[C@H]([C@@H]1CC(C)C(=O)O1)[C@@H](C)C1[C@@H]2[C@@]3(O)O[C@@]4(CC[C@]12C)C(O)[C@]12OC(=O)C[C@H]1OC(C)(C)[C@@H]2CC[C@H]4C3=O (stereo partly drawn) | 5.00
C/C=C(/C)C(=O)O[C@@H]1C[C@H]2C(C)(C)O[C@@H]3CC(=O)O[C@@]32C[C@@]2(O)C[C@H](O)[C@]34O[C@@]5(C=C(C)C(=O)O5)C[C@@H](C)[C@H]3C[C@@H]3O[C@@]34[C@H]12 | < 4.00
CC(=O)O[C@H]1C[C@]2(C)O[C@@]23C(=O)C=C(C)C3[C@H]2OC(=O)[C@H](C)[C@H]12 (stereo partly drawn) | 5.19
CC1=CC[C@@H]([C@](C)(O)[C@H]2CC[C@@]3(C)[C@@H]4C[C@@H](O)[C@H]5C(C)(C)OC(=O)C=C[C@@]56C[C@@]46CC[C@]23C)OC1=O | < 4.00
CC#Cc1cc(O)c(C(C)=O)s1 | 4.01
C/C1=C\C[C@H](O)/C(C)=C/[C@H]2OC(=O)[C@H](C)[C@@H]2CC1 | 4.55
CC#Cc1ccc(C(=O)O)s1 | 4.10
CC(=O)O[C@H]1CC(C)=C2C(=O)C=C(C)[C@@H]2[C@H]2OC(=O)[C@@H](C)[C@@H]21 | < 4.00
CC(=O)O[C@H]([C@@H]1C=C(C)C(=O)O1)[C@@H](C)C1[C@@H]2[C@@]3(O)O[C@@]4(CC[C@]12C)C(O)[C@]12OC(=O)C[C@H]1OC(C)(C)[C@@H]2CC[C@H]4C3=O (stereo partly drawn) | 4.92
O=c1c(O)c(-c2ccc(O)c(O)c2)oc2cc(O)cc(O)c12 [QUERCETIN] | 4.79
